Results from US8431593B2, “Heteroaryl amide derivatives” (H. Lundbeck A/S, priority 2006, dated 2013).

What follows are molecules tested against T1, P2X7 receptor (Homo sapiens, UniProt Q99572) (assay: P2X7 calcium mobilization assay, high throughput, antagonist activity (Example 4A)). Settings: 50% decrease in the fluorescence response of cells exposed to 80 μM 2′(3′)-O-(4-benzoyl-benzoyl)adenosine 5′-triphosphate; Example 4A; read-out: IC50.
T1 construct: host or cells: SH-SY5Y
T1 sequence (Q99572 1-595): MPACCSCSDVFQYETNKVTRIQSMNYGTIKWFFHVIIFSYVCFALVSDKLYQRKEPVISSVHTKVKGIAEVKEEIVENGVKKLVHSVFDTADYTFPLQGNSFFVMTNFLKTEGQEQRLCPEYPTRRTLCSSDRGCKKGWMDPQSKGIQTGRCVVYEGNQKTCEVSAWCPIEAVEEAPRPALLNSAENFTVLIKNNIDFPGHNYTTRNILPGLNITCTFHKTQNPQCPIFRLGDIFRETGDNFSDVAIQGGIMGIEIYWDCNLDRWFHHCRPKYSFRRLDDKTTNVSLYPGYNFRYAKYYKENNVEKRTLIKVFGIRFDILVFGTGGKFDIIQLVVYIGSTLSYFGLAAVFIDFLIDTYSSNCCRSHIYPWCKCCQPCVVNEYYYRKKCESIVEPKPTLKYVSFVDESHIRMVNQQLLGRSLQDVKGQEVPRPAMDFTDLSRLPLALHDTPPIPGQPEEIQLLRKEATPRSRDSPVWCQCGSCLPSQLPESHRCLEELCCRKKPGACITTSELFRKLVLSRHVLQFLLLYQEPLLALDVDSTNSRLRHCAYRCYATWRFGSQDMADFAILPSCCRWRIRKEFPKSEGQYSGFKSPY
Format: cell-based
Method in brief: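 Dye-loaded cells (100,000/well, seeded previous day) are pre-exposed to compound for an hour at room temperature. Fluorescence maxima are baseline-corrected against no-agonist wells and compared with the averaged agonist-well maximum.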

IC50, < 2000 nM:
O=C(CC12CC3CC(CC(C3)C1)C2)Nc1cccc2nc(C(=O)N3CCCC(O)C3)cn12 (stereo not drawn) [Compound 418, 2-adamantan-1-yl-N-{2-[(3-hydroxypiperidin-1-yl)carbonyl]imidazo [1,2-a]pyridin-5-yl}acetamide]
O=C(CC12CC3CC(CC(C3)C1)C2)Nc1cccc2nc(C(=O)N3CC[C@H](O)C3)cn12 [Compound 419, 2-adamantan-1-yl-N-(2-{[(3S)-3-hydroxypyrrolidin-1-yl]carbonyl}imidazo [1,2-a]pyridin-5-yl)acetamide]
O=C(CC12CC3CC(CC(C3)C1)C2)Nc1cccc2nc(C(=O)N3CCC(CCO)CC3)cn12 [Compound 423, 2-adamantan-1-yl-N-(2-{[4-(2-hydroxyethyl)piperidin-1-yl]carbonyl}imidazo [1,2-a]pyridin-5-yl)acetamide]
O=C(CC12CC3CC(CC(C3)C1)C2)Nc1cccc2nc(C(=O)N3CCC(CO)CC3)cn12 [Compound 424, 2-adamantan-1-yl-N-(2-{[4-(hydroxymethyl)piperidin-1-yl]carbonyl}imidazo[1,2-a]pyridin-5-yl)acetamide]
O=C(CC12CC3CC(CC(C3)C1)C2)Nc1cccc2nc(C(=O)N3CCC(O)CC3)cn12 [Compound 426, 2-adamantan-1-yl-N-{2-[(4-hydroxypiperidin-1-yl)carbonyl]imidazo [1,2-a]pyridin-5-yl}acetamide]
CN(CCC(C)(C)O)C(=O)c1cn2c(NC(=O)CC34CC5CC(CC(C5)C3)C4)cccc2n1 [Compound 431, 5-[(adamantan-1-ylacetyl)amino]-N-(3-hydroxy-3-methylbutyl)-N-methylimidazo[1,2-a]pyridine-2-carboxamide]
CC(C)(CO)NC(=O)c1cn2c(NC(=O)CC34CC5CC(CC(C5)C3)C4)cccc2n1 [Compound 437, 5-[(adamantan-1-ylacetyl)amino]-N-(2-hydroxy-1,1-dimethylethyl)imidazo [1,2-a]pyridine-2-carboxamide]
O=C(CC12CC3CC(CC(C3)C1)C2)Nc1cccc2nc(C(=O)NC3(CO)CCCC3)cn12 [Compound 441, 5-[(adamantan-1-ylacetyl)amino]-N-[1-(hydroxymethyl)cyclopentyl]imidazo[1,2-a]pyridine-2-carboxamide]
O=C(NCC12CC3CC(CC(C3)C1)C2)c1cccc2nc(CS(=O)(=O)c3nnc[nH]3)cn12 [Compound 449, N-(adamantan-1-ylmethyl)-2-[(4H-1,2,4-triazol-3-ylsulfonyl)methyl] imidazo [1,2-a]pyridine-5-carboxamide]
CCOC(=O)C(C)(C)c1cn2c(C(=O)NCC34CC5CC(CC(C5)C3)C4)cccc2n1 [Compound 450, ethyl 2-{5-[(adamantan-1-ylmethyl)carbamoyl]imidazo[1,2-a]pyridin-2-yl}-2-methylpropanoate]
CCOC(=O)C(C)(C)c1cn2c(C(=O)N(C)CC34CC5CC(CC(C5)C3)C4)cccc2n1 [Compound 451, ethyl 2-{5-[(adamantan-1-ylmethyl)(methyl)carbamoyl]imidazo [1,2-a]pyridin-2-yl} -2-methyl-propanoate]
CCOC(=O)N1CCN(C(=O)c2cn3c(C(=O)NC[C@@H]4CC[C@H]5C[C@@H]4C5(C)C)cccc3n2)CC1 [Compound 452, ethyl 4-{[5-({[(1S,2R,5S)-6,6-dimethylbicyclo[3.1.1]hept-2-yl]methyl}carbamoyl)imidazo[1,2-a]pyridin-2-yl]carbonyl}piperazine-1-carboxylate]
CC1(C)[C@H]2CC[C@@H](CNC(=O)c3cccc4nc(C(=O)N5CCCC5)cn34)[C@@H]1C2 [Compound 454, N-{[(1S,2R,5S)-6,6-dimethylbicyclo[3.1.1]hept-2-yl]methyl}-2-(pyrrolidin-1-ylcarbonyl) imidazo[1,2-a]pyridine-5-carboxamide]
CCN(CC)C(=O)C1CCCN(C(=O)c2cn3c(C(=O)NC[C@@H]4CC[C@H]5C[C@@H]4C5(C)C)cccc3n2)C1 (stereo partly drawn) [Compound 456, 2-{[3-(diethylcarbamoyl)piperidin-1-yl]carbonyl}-N-{[(1S,2R,5S)-6,6-dimethylbicyclo[3.1.1]hept-2-yl]methyl}imidazo[1,2-a]pyridine-5-carboxamide]
CC(=O)NC1CCN(C(=O)c2cn3c(C(=O)NC[C@@H]4CC[C@H]5C[C@@H]4C5(C)C)cccc3n2)C1 (stereo partly drawn) [Compound 457, 2-[(3-acetamidopyrrolidin-1-yl)carbonyl]-N-{[(1S,2R,5S)-6,6-dimethylbicyclo[3.1.1]hept-2-yl]methyl}imidazo[1,2-a]pyridine-5-carboxamide]
CCCN(C)C(=O)c1cn2c(C(=O)NC[C@@H]3CC[C@H]4C[C@@H]3C4(C)C)cccc2n1 [Compound 460, 5-N-{[(1S,2R,5S)-6,6-dimethylbicyclo[3.1.1]hept-2-yl]methyl}-2-N-methyl-2-N-propylimidazo[1,2-a]pyridine-2,5-dicarboxamide]
CC1(C)[C@H]2CC[C@@H](CNC(=O)c3cccc4nc(C(=O)N5CCSCC5)cn34)[C@@H]1C2 [Compound 462, N-{[(1S,2R,5S)-6,6-dimethylbicyclo[3.1.1]hept-2-yl]methyl}-2-(thiomorpholin-4-ylcarbonyl)imidazo[1,2-a]pyridine-5-carboxamide]
CC1CCN(C(=O)c2cn3c(C(=O)NC[C@@H]4CC[C@H]5C[C@@H]4C5(C)C)cccc3n2)CC1 [Compound 463, N-{[(1S,2R,5S)-6,6-dimethylbicyclo[3.1.1]hept-2-yl]methyl}-2-[(4-methylpiperidin-1-yl)carbonyl]imidazo[l, 2-a]pyridine-5-carboxamide]
CC1(C)[C@H]2CC[C@@H](CNC(=O)c3cccc4nc(C(=O)N5CCOCC5)cn34)[C@@H]1C2 [Compound 464, N-{[(1S,2R,5S)-6,6-dimethylbicyclo[3.1.1]hept-2-yl]methyl}-2-(morpholin-4-ylcarbonyl)imidazo [1,2-a]pyridine-5-carboxamide]
CC1(C)[C@H]2CC[C@@H](CNC(=O)c3cccc4nc(C(=O)N5CCCCC5)cn34)[C@@H]1C2 [Compound 465, N-{[(1S,2R,5S)-6,6-dimethylbicyclo[3.1.1]hept-2-yl]methyl}-2-(piperidin-1-ylcarbonyl)imidazo[1,2-a]pyridine-5-carboxamide]
COCCN(C)C(=O)c1cn2c(C(=O)NC[C@@H]3CC[C@H]4C[C@@H]3C4(C)C)cccc2n1 [Compound 466, 5-N-{[(1S,2R,5S)-6,6-dimethylbicyclo[3.1.1]hept-2-yl]methyl}-2-N-(2-methoxyethyl)-2-N-methylimidazo[1,2-a]pyridine-2,5-dicarboxamide]

Same assay, conditions: fluorescence response of cells exposed to 80 μM 2′(3′)-O-(4-benzoyl-benzoyl)adenosine 5′-triphosphate; Example 4A; read-out: IC50

IC50, < 2000 nM:
CCCCN(CCO)C(=O)c1cn2c(NC(=O)CC34CC5CC(CC(C5)C3)C4)cccc2n1 [Compound 412, 5-[(adamantan-l-ylacetyl)amino]-N-butyl-N-(2-hydroxyethyl)imidazo [1,2-a]pyridine-2-carboxamide]
CC(C)N(CCO)C(=O)c1cn2c(NC(=O)CC34CC5CC(CC(C5)C3)C4)cccc2n1 [Compound 413, 5-[(adamantan-1-ylacetyl)amino]-N-(2-hydroxyethyl)-N-isopropylimidazo[1,2-a]pyridine-2-carboxamide]
CCN(CCO)C(=O)c1cn2c(NC(=O)CC34CC5CC(CC(C5)C3)C4)cccc2n1 [Compound 414, 5-[(adamantan-1-ylacetyl)amino]-N-ethyl-N-(2-hydroxyethyl)imidazo [1,2-a]pyridine-2-carboxamide]
O=C(CC12CC3CC(CC(C3)C1)C2)Nc1cccc2nc(C(=O)N3CCCCC3CO)cn12 (stereo not drawn) [Compound 415, 2-adamantan-1-yl-N-(2-{[2-(hydroxymethyl)piperidin-1-yl]carbonyl}imidazo[1,2-a]pyridin-5-yl)acetamide]
CC(C)N(CCCO)C(=O)c1cn2c(NC(=O)CC34CC5CC(CC(C5)C3)C4)cccc2n1 [Compound 416, 5-[(adamantan-1-ylacetyl)amino]-N-(3-hydroxypropyl)-N-isopropylimidazo[1,2-a]pyridine-2-carboxamide]
CCN(CCCO)C(=O)c1cn2c(NC(=O)CC34CC5CC(CC(C5)C3)C4)cccc2n1 [Compound 417, 5-[(adamantan-1-ylacetyl)amino]-N-ethyl-N-(3-hydroxypropyl) imidazo [1,2-a]pyridine-2-carboxamide]
